# Results taken from patent US9458217B2, “Methods of managing graft versus host disease” (EMORY UNIVERSITY, priority 2013, dated 2016).
# Entries after “also recorded” stand apart in the source; their conditions may differ. Where no end group is shown, it is not given here.
# Columns and labels:
# CD11c+ cells = test: Cell viability / direct cytotoxicity on drug exposure in vitro; details: at the doses that inhibit trogocytosis (FIG. 3)
# cross-dressed CD11c+ APC = test: Drug inhibition of trogocytosis in MLR (frequency of cross-dressed CD11c+ APC by flow cytometry); format: cell-based, mice
# Procedure: The frequency of cross-dressed CD11c+ APC on day 6 of MLR was assessed by flow cytometry.
# Whether drugs can inhibit cross-dressed APCs from facilitating antigen presentation to donor T cells and prevent GVHD following allo-HSCT was tested. Cross-dressed donor CD11c+ APCs were generated in vivo following allo-HSCT (FIG. 1).
# T cells = test: T cell proliferation in primary MLR with drug-treated bone marrow; format: cell-based, mice
compound,measurement,setting,value
KPRRPYTDNYTRLRKQMAVKKYLNSILN-NH2 [VIPHyb],cell viability / direct cytotoxic effects,CD11c+ cells,without direct cytotoxic effects
same,cell viability / direct cytotoxic effects,CD11c+ cells; listed as VIP antagonist,preserving cell viability
CC(=O)O[C@H]1C(=O)[C@@]2(C)[C@H]([C@H](OC(=O)c3ccccc3)[C@]3(O)C[C@H](OC(=O)[C@H](O)[C@@H](NC(=O)c4ccccc4)c4ccccc4)C(C)=C1C3(C)C)[C@]1(OC(C)=O)CO[C@@H]1C[C@@H]2O [paclitaxel],exchange of plasma membrane fragments (trogocytosis; frequency of cross-dressed CD11c+ APC),"cross-dressed CD11c+ APC; in vitro generated cross-dressed CD11c+ cells, day 6 of MLR, flow cytometry (FIG. 3)",inhibited
same,semi-direct presentation of allo-antigen to T cells,cross-dressed CD11c+ APC; summary statement of the data,reduce semi-direct presentation
same,T cell proliferation in primary MLR,"T cells; bone marrow treated with 0.05 uM, compared to non-drug treated bone marrow",significantly decreased
same,allo-reactivity,T cells; summary statement of the data,reduce allo-reactivity
same,cell viability / direct cytotoxic effects,CD11c+ cells,without direct cytotoxic effects; also recorded: preserving cell viability
